Results from patent US20200071675A1, “METHOD FOR PRODUCING ENDOTHELIAL CELLS” (TAKARA BIO INC., priority 2016, published 2020).
Where two headings read alike, the source gives them in different places.

Assays:
[1] = system: KDR-positive vascular endothelial progenitor cells from human iPS cells (ChiPSC12 strain); test: Cell numbers during differentiation of iPS cell-derived vascular endothelial progenitor cells cultured with a TGF-β inhibitor (Days 8 to 11); assay type: cell-based; conditions: for Cell Numbers (Day 19) / Cell Numbers (Day 30): cell numbers at Day 8 defined as 1
[2] = system: KDR-positive vascular endothelial progenitor cells from human iPS cells (ChiPSC12 strain); test: CD31-positive cell ratio (endothelial cell marker) by flow cytometry; assay type: cell-based
Method: Human iPS cells ([…]) were cultured in DEF-CS medium (Cellartis) in accordance with the instructions attached to the medium. In order to efficiently induce differentiation of mesodermal cells, iPS cells were coated with Matrigel (Matrigel Sandwich method) in accordance with the following procedures. […] Here, SB431542, another TGF-β inhibitor, was used as a negative control. The cells were collected at Day 11, and the cell numbers were counted.

[3] = system: KDR-positive vascular endothelial progenitor cells from human iPS cells (ChiPSC12 strain)
Method: Human iPS cells (ChiPSC12 strain) were cultured in DEF-CS medium in accordance with the instructions attached to the medium.
TrypLE(trademark) Select was added to iPS cells that had been subcultured, and the cells were incubated at 37° C. for 3 to 7 minutes. The detached cells were collected as a single cell by pipetting, and the cell numbers were counted. […] Thereafter, the medium was exchanged with DEF-CS medium added with Matrigel diluted to 1:60, and the cells were cultured for additional 16 to 24 hours, thereby coating an upper layer of the cells with Matrigel.
The Matrigel-coated iPS cells obtained were differentiated into mesodermal cells in accordance with the following procedures. First, a medium of the Matrigel-coated iPS cells was exchanged with RPMI 1640 medium added with 100 ng/mL activin A, 2 mM GlutaMAX(trademark), and B27 supplement (without containing insulin) (this time point being defined as the beginning of the induction of differentiation=Day 0), and the cells were cultured for 24 hours (Day 1). Next, the medium was exchanged with RPMI 1640 medium added with 10 ng/mL hBMP4, 10 ng/mL hbFGF, 2 mM GlutaMAX, and B27 supplement, and the cells were cultured for 3 days (Day 4). Thereafter, the medium was exchanged with RPMI 1640 medium added with 100 ng/mL VEGF, 2 mM GlutaMAX, and B27 supplement, and the cells were cultured overnight (Day 5).
KDR-positive cells were separated from the cultured cells at Day 5 by using the magnetic-activated cell sorting, thereby isolating vascular endothelial progenitor cells. In order to separate the KDR-positive cells, an anti-KDR antibody to which a PE fluorescent label was bound was used as a primary antibody for labeling cells, and cells labeled with the primary antibody were collected with magnetic beads embedding anti-PE antibodies. […] Further, the medium at Day 6 was exchanged with RPMI 1640 medium added with B27 supplement, 50 units/mL penicillin, 50 μg/mL streptomycin, 2 mM GlutaMAX, and 100 ng/mL VEGF, and the cells were cultured for 2 days (Day 8).
Here, CD31 is a marker of endothelial cells, and CD34 is a marker of hematopoietic stems cells or endothelial progenitor cells. In addition, CD34 is also expressed in juvenile endothelial cells.

[4] = system: vascular endothelial cells induced from human iPS cells (ChiPSC12 strain); test: Freezing and thawing of vascular endothelial cells induced with RepSox; conditions: cells induced with 20 μM RepSox, collected Days 18 to 22, stored in liquid nitrogen for 3 days, thawed at 37° C.
Method: The collected cells were washed, and suspended in Stem Cell Banker (TAKARA BIO INC.) so as to have a cell concentration of 3×10^6/mL, and 1 mL of each of the suspension was dispensed to vials. The vials were placed in a frozen-treated vessel (BICELL, Nihon Freezer Co., Ltd.), and the cells were subjected to slow freezing in a freezing storage chamber held at a temperature of −80° C. Thereafter, each vial was transferred to a liquid nitrogen, and stored for 3 days.
The frozen cells were warmed for 2 minutes and 30 seconds with a water bath warmed to 37° C., to thaw the cells. […] An entire amount of the remaining cells was added to a tube to which 8 mL of a medium for proliferating endothelial cells had been dispensed in advance. Thereafter, a vial was rinsed with 1 mL of a medium for proliferating endothelial cells, and a rinsed medium was added to the tube. The tube was centrifuged at 200×g for 5 minutes, and the supernatant was then discarded. The cells were suspended in a fresh medium for culturing endothelial cells, and the cells were seeded at a density of 2×10^4 cells/cm^2 to a culture vessel. […]
The cells were collected on a seventh day after thawing the cells, and the cell numbers were counted. At the same time, the CD31-positive cell ratio, an endothelial cell marker, was measured with a flow cytometry.

Compound | Cell Numbers (Day 19) ([1]; 10 μM inhibitor Days 8 to 11) | Cell Numbers (Day 30) ([1]; 10 μM inhibitor Days 8 to 11) | Cell Numbers (Day 19) ([1]; 20 μM inhibitor Days 8 to 11) | Cell Numbers (Day 30) ([1]; 20 μM inhibitor Days 8 to 11) | CD31-Positive (Day 19) ([2]; 10 μM inhibitor Days 8 to 11) | CD31-Positive (Day 30) ([2]; 10 μM inhibitor Days 8 to 11) | CD31-Positive (Day 19) ([2]; 20 μM inhibitor Days 8 to 11) | CD31-Positive (Day 30) ([2]; 20 μM inhibitor Days 8 to 11) | further results
Cc1cccc(-c2[nH]ncc2-c2ccc3ncccc3n2)n1 [RepSox] | 3.5 | 9.1 | 3.5 | 3.1 | 99.7% | 99.0% | 99.8% | 99.1% | Cell Numbers (Day 19) ([1]; 3 μM inhibitor Days 8 to 11): 3.1; Cell Numbers (Day 30) ([1]; 3 μM inhibitor Days 8 to 11): 2.5; cell proliferation rates at Day 30 ([1]; text summary: 'in both the media containing 3 μM RepSox', relative to Day 8 = 1): ≥ 2.5; CD31-Positive (Day 19) ([2]; 3 μM inhibitor Days 8 to 11): 98.9%; CD31-Positive (Day 30) ([2]; 3 μM inhibitor Days 8 to 11): 87.0%; CD31-positive ratios (Day 30) ([2]; text summary: 'in both the media containing 3 μM RepSox'): ≥ 87%; CD31+/CD34+ (Day 13) ([3]; 3 μM RepSox Day 8 to 11): 96.9%; CD31+/CD34+ (Day 18) ([3]; 3 μM RepSox Day 8 to 11): 93.3%; CD31+/CD34+ (Day 13) ([3]; 10 μM RepSox Day 8 to 11): 96.1%; CD31+/CD34+ (Day 18) ([3]; 10 μM RepSox Day 8 to 11): 94.4%; CD31+/CD34+ (Day 13) ([3]; 20 μM RepSox Day 8 to 11): 95.8%; CD31+/CD34+ (Day 18) ([3]; 20 μM RepSox Day 8 to 11): 96.1%; CD31+/CD34+ cells at Day 13 ([3]; regardless of the concentrations of RepSox (3, 10, 20 μM)): ≥ 95%; cell viability after thawing [4]: 87%
NC(=O)c1ccc(-c2nc(-c3ccc4c(c3)OCO4)c(-c3ccccn3)[nH]2)cc1 [SB431542] | 1.3 | 0.9 | 2.3 | 5.1 | 97.7% | 89.4% | 98.7% | 33.0% | –
